The record followed here is patent publication US20040204577A1, “Novel peptide-forming enzyme gene” (Ajinomoto Co., Inc., priority 2003, published 2004).

Marks after values point to notes of the source that are not given here. Where a SMILES comes first, the peptide text is derived from it. Where no end group is shown, it is not given here. [ ]: non-standard residue; d: D form. The star is where a group is joined. Tle = CC(C)(C)[C@H](N)C(=O)O; NMeA = CN[C@@H](C)C(=O)O; Boc = CC(C)(C)OC(=O)*; OtBu = CC(C)(C)O*

For one assay, the system named is peptide-forming enzyme (Mono S fraction enzyme). Put plainly: Enzyme substrate specificity (1)-(10), (13), (14): peptide production. The conditions noted are these: L or D amino acid methyl ester hydrochloride 100 mM, L or D amino acid 150 mM, pH 9.0, 25° C., 3 hours. The arrangement: key to Produced peptide (oligopeptide): +: those for which production was confirmed but which were unable to be quantified due to the absence of a standard; a trace amount; key to Formed peptide: +: those peptides for which production was confirmed but which were unable to be quantified due to the absence of a standard; a trace amount. The assay is classed as biochemical, Empedobacter brevis. As for the experimental part: Ester specificity was examined in the case of using L-amino acid ester for the carboxy component. 2 μl of the same enzyme fraction as used in Example 5 was added to 100 μl of 100 mM borate buffer (pH 9.0) containing the carboxy components indicated in Table 4 at 100 mM, 200 mM L-glutamine and 10 mM EDTA, and allowed to react at 25° C. for 2 hours. HCl represents hydrochloride in Table 4.
Peptide production was examined in the case of using L-alanine methyl ester for the carboxy component and using various L-amino acids for the amine component.
Peptide production was examined in the case of using various types of L-amino acid methyl esters for the carboxy component and using L-glutamine for the amine component. 2 μl of the same enzyme fraction as used in Example 5 was added to 100 μl of 100 mM borate buffer (pH 9.0) containing the L-amino acid methyl ester hydrochloride salts (AA-OMe.HCl) shown in Table 6 at 100 mM, 150 mM L-glutamine and 10 mM EDTA, and allowed to react at 25° C. for 3 hours. […] Furthermore, Tween-80 was added to the reaction system to a final concentration of 0.1% in the case of using L-Trp-OMe and L-Tyr-OMe.
Peptide production was examined in the case of using various L-amino acid methyl esters for the carboxy component and various L-amino acids for the amine component. 2 μl of the same enzyme fraction as used in Example 5 was added to 100 μl of 100 mM borate buffer (pH 9.0) containing the L-amino acid methyl ester hydrochloride salts (AA-OMe.HCl) shown in Table 7 at 100 mM, the L-amino acids shown in Table 7 at 150 mM and 10 mM EDTA, and allowed to react at 25° C. for 3 hours. The “tr” indicates a trace amount. Furthermore, Tween-80 was added to the reaction system to a final concentration of 0.1% in the case of using L-Trp-OMe.
Peptide production was examined in the case of using the L or D forms of various amino acid methyl esters for the carboxy component, and the L or D forms of various amino acids for the amine component. 2 μl of the same enzyme fraction as used in Example 5 was added to 100 μl of 100 mM borate buffer (pH 9.0) containing the various amino acid methyl ester hydrochloride salts (AA-OMe HCl) shown in Table 8 at 100 mM, the various amino acids shown in Table 8 at 150 mM and 10 mM EDTA, and allowed to react at 25° C. for 3 hours. The “tr” indicates a trace amount.
Peptide production was examined using various L-amino acid amides for the carboxy component, and various L-amino acids for the amine component. 2 μl of the same enzyme fraction as that used in Example 5 was added to 100 μl of 100 mM borate buffer (pH 9.0) containing the L-amino acid amide hydrochloride salt (M-NH2.HCl) shown in Table 9 at 100 mM, the L-amino acids shown in Table 9 at 150 mM and 10 mM EDTA, and allowed to react at 25° C. for 3 hours.
Peptide production was examined in the case of using various L-alanine methyl esters for the carboxy component and C-protected L-amino acids for the amine component. 2 μl of the same enzyme fraction as used in Example 5 was added to 100 μl of 100 mM borate buffer (pH 9.0) containing the L-alanine methyl ester hydrochloride hydrochloride salt (Ala-OMe.HCl) shown in Table 10 at 100 mM, the L-amino acid amide hydrochloride salts shown in Table 10 at 150 mM and 10 mM EDTA, and allowed to react at 25° C. for 3 hours.
Peptide production was examined in the case of using various amino acid methyl esters for the carboxy component and methylamine for the amine component. 2 μl of the same enzyme fraction as used in Example 5 was added to 100 μl of 100 mM borate buffer (pH 9.0) containing the amino acid methyl ester hydrochloride salt (M-OMe.HCl) shown in Table 11 at 100 mM, the methylamine shown in Table 11 at 150 mM and 10 mM EDTA, and allowed to react at 25° C. for 3 hours.
Peptide production was examined in the case of using […] for the carboxy component or β-amino acid for the amine component.
The molecule `CSCC[C@@H](N)C(=O)N[C@@H](CO)C(=O)O` [D-Met-L-Ser] (H-[dM]-Ser-OH) yielded a Formed peptide of 5.1 mM. Regarding `CSCC[C@@H](N)C(=O)N[C@H](CO)C(=O)O` [D-Met-D-Ser] (H-[dM]-[dS]-OH), the Formed peptide turned out to be 2.7 mM. `CC(C)[C@H](N)C(=O)N[C@H](CO)C(=O)O` [L-Val-D-Ser] (H-Val-[dS]-OH) gave a Formed peptide of 1.4 mM. The same measure, in the same setting: for `C[C@@H](N)C(=O)N[C@H](CCC(N)=O)C(=O)O` [D-Ala-D-Gln] (H-[dA]-[dQ]-OH) the value was “tr”. In the case of `CC(C)[C@@H](N)C(=O)N[C@@H](CO)C(=O)O` [D-Val-L-Ser] (H-[dV]-Ser-OH), the Formed peptide was determined as 0.6 mM. In turn, `N[C@H](CO)C(=O)N[C@@H](CO)C(=O)O` [D-Ser-L-Ser] (H-[dS]-Ser-OH) registered a Formed peptide of 3.3 mM. Consider `C[C@@H](N)C(=O)N[C@@H](CCC(N)=O)C(=O)O` [D-Ala-L-Gln] (H-[dA]-Gln-OH), for which the Formed peptide was found to be 69.3 mM. Molecule `C[C@H](O)[C@@H](N)C(=O)N[C@H](CO)C(=O)O` [D-Thr-D-Ser] (H-[dT]-[dS]-OH) returned a Formed peptide of 1.1 mM. On the same count and under the same terms, in the case of `CSCC[C@H](N)C(=O)N[C@H](CO)C(=O)O` [L-Met-D-Ser] (H-Met-[dS]-OH) it was 1.9 mM; in that of `N[C@@H](CO)C(=O)N[C@H](CO)C(=O)O` [L-Ser-D-Ser] (H-Ser-[dS]-OH), 16.2 mM. As to `CC(C)[C@@H](N)C(=O)N[C@H](CO)C(=O)O` [D-Val-D-Ser] (H-[dV]-[dS]-OH), the Formed peptide is 0.5 mM.

Still in this assay, the particulars now being: L-amino acid amide hydrochloride as carboxy component 100 mM, L-amino acid 150 mM, pH 9.0, 25° C., 3 hours.
`N[C@@H](Cc1ccccc1)C(=O)N[C@@H](CO)C(=O)O` [L-Phe-L-Ser] (H-Phe-Ser-OH) displayed a Formed peptide of 0.6 mM.

The same assay, now with this note: L-amino acid ester 100 mM, peptide (amine component) 150 mM, pH 9.0, 25° C., 3 hours.
As for Gly-Gly-L-Tyr-L-Ala, the Produced peptide is 44.2 mM. Gly-Gly-L-Gln: the Produced peptide was found to be 7.2 mM.

The same assay, now with this note: L-amino acid methyl ester hydrochloride 100 mM, 150 mM L-glutamine, pH 9.0, 25° C., 3 hours.
Turning to `NC(=O)CC[C@H](NC(=O)[C@@H](N)Cc1cnc[nH]1)C(=O)O` [L-His-L-Gln] (H-His-Gln-OH), the Formed peptide result is “+”.

For `NC(=O)CC[C@H](NC(=O)[C@@H](N)CC(N)=O)C(=O)O` [L-Asn-L-Gln] (H-Asn-Gln-OH), the Formed peptide result was “+”. With `NC(=O)CC[C@H](NC(=O)[C@@H](N)CS)C(=O)O` [L-CySH-L-Gln] (H-Cys-Gln-OH), the Formed peptide result is “+”.

Regarding `NCCCC[C@H](N)C(=O)N[C@@H](CCC(N)=O)C(=O)O` [L-Lys-L-Gln] (H-Lys-Gln-OH), the Formed peptide entry is “+”. In the case of `NC(=O)CCC(NC(=O)C(N)Cc1c[nH]c2ccccc12)C(=O)O` [L-Trp-L-Gln] (H-Trp-Gln-OH; configuration not given here), the Formed peptide result is recorded as “+”. The same measure, in the same setting: in the case of `NC(=O)CC[C@H](NC(=O)[C@@H](N)CCC(=O)O)C(=O)O` [α-L-Glu-L-Gln] (H-Glu-Gln-OH) it was “+”; in that of `NC(=O)CC[C@H](NC(=O)C[C@H](N)C(=O)O)C(=O)O` [β-L-Asp-L-Gln], “tr”.

Staying with this assay, now noted: L-amino acid methyl ester hydrochloride 100 mM, L-amino acid 150 mM, pH 9.0, 25° C., 3 hours.
For the molecule `CSCC[C@H](NC(=O)[C@@H](N)CC(C)C)C(=O)O` [L-Leu-L-] (H-Leu-Met-OH), the Formed peptide amounted to 12.2 mM. Same read-out and setting: in the case of `NCC(=O)N[C@@H](CS)C(=O)O` [Gly-L-CySH] (H-Gly-Cys-OH) it was 45.6 mM. For `CSCC[C@H](NC(=O)[C@@H](N)Cc1c[nH]c2ccccc12)C(=O)O` [L-Trp-L-Met] (H-Trp-Met-OH), the Formed peptide is given as 4.1 mM. In turn, `CSCC[C@H](NC(=O)[C@@H](N)CCCCN)C(=O)O` [L-Lys-L-Met] registered a Formed peptide of 6.8 mM.

The same assay, now with this note: amount of enzyme 0.1 unit, pH 9.0, 25° C., 3 hours.
With [dA]-Gly-Phe, the “Produced peptide (oligopeptide)” value is “Tr”. Regarding L-Ala-Gly-L-Phe, the “Produced peptide (oligopeptide)” value is listed as “+”.

Staying with this assay, now noted: amount of enzyme 0.2 unit, pH 9.0, 25° C., 3 hours.
As for L-Ala-L-Phe-L-Met, the “Produced peptide (oligopeptide)” value is “+”. With L-Ala-Gly-Gly-L-Phe-L-Met, the “Produced peptide (oligopeptide)” value is listed as “+”.

The same assay, now with this note: amount of enzyme 1.0 unit, pH 9.0, 25° C., 3 hours.
Take Gly-Phe-Met: the “Produced peptide (oligopeptide)” value amounted to 13.3 mM. In the case of L-Tyr-Gly-Gly-L-Phe-L-Met, the “Produced peptide (oligopeptide)” value was 2.7 mM.

Staying with this assay, now noted: carboxy component 10 mM, amine component 15 mM (low solubility), pH 9.0, 25° C., 3 hours.
In the case of L-Ala-L-Ala-L-Ala-L-Ala-L-Ala-L-Ala, the Produced peptide is 1.4* mM.

The same assay, now with this note: carboxy component 40 mM, amine component 40 mM, 0.1 unit enzyme, 25° C., reaction time 3 hr.
Regarding `C[C@H](N)C(=O)N[C@@H](Cc1ccc([N+](=O)[O-])cc1)C(=O)O` [H-Ala-p-NO2-Phe-OH], the Produced peptide was determined as 27.5 mM. Turning to `NC(=O)CC[C@H](NC(=O)[C@@H](N)Cc1ccc([N+](=O)[O-])cc1)C(=O)O` [H-p-NO2-Phe-H-Gln-OH], the Produced peptide was 1.1 mM.

The assay is the same for the next values; noted with them: carboxy component 50 mM, amine component 50 mM, 0.1 unit enzyme, 25° C., reaction time 3 hr.
Consider `C[C@H](N)C(=O)N[C@@H](Cc1ccc(F)cc1)C(=O)O` [H-Ala-p-F-Phe-OH], for which the Produced peptide is 21.9 mM.

Still in this assay, the particulars now being: carboxy component 100 mM, 200 mM L-glutamine, pH 9.0, 25° C., 2 hours.
As to `COC(=O)[C@H](C)N.Cl` [L-Alanine methyl ester.HCl, L-alanine methyl ester hydrochloride], the L-Ala-L-Gln formed is listed as 84.3 mM. Same read-out and setting: for `C[C@H](N)C(=O)OC(C)(C)C.Cl` [L-Alanine-t-butyl ester.HCl] the value was 7.5 mM.

Staying with this assay, now noted: carboxy component 100 mM, amine component 150 mM, 0.1 unit enzyme, 25° C., reaction time 2 hr.
For `CC(C)(C)OC(=O)C[C@H](N)C(=O)N[C@@H](CCC(N)=O)C(=O)O` [H-Asp(OtBu)-Gln-OH] (H-Asp(OtBu)-Gln-OH), the Produced peptide came out at 0.9 mM.

`C[C@H](N)C(=O)N[C@@H](CCCCNC(=O)OC(C)(C)C)C(=O)O` [H-Ala-Lys(Boc)-OH] (H-Ala-Lys(Boc)-OH) gave a Produced peptide of 51.0 mM. Same read-out and setting: in the case of `C[C@H](N)C(=O)N[C@@H](CC(=O)OC(C)(C)C)C(=O)O` [H-Ala-Asp(OtBu)-OH] (H-Ala-Asp(OtBu)-OH) it was 62.6 mM.

The assay is the same for the next values; noted with them: carboxy component 100 mM, amine component 150 mM, 0.1 unit enzyme, 25° C., reaction time 3 hr.
The molecule `C[C@H](N)C(=O)N[C@H](C(=O)O)C(C)(C)C` [H-Ala-t-Leu-OH] (H-Ala-[Tle]-OH) returned a Produced peptide of 0.4 mM. In turn, `CN[C@@H](C)C(=O)N[C@@H](CCC(N)=O)C(=O)O` [H-N-Me-Ala-H-Gln-OH] (H-[NMeA]-Gln-OH) came in with a Produced peptide of 0.5 mM.

The same assay, now with this note: β-amino acid ester or β-amino acid; carboxy component 100 mM, amine component 150 mM, pH 9.0, 25° C., 3 hours.
For `CC(N)C(=O)NC(CC(=O)O)c1ccccc1` (stereo not drawn) [Ala-β-Phe], the Formed peptide is given as 1.4 mM. On the same count and under the same terms, for `NCCC(=O)NC(CO)C(=O)O` [β-Ala-L-Ser] the value was 3.2 mM; for `NCCC(=O)NCCC(=O)O` [β-Ala-β-Ala], 0.2 mM; for `C[C@H](NC(=O)CCN)C(=O)O` [β-Ala-L-α-Ala], “tr”. Regarding `NCCC(=O)N[C@@H](CCC(N)=O)C(=O)O` [β-Ala-L-Gln], the Formed peptide was 0.6 mM.
